Values after ≈ are worked out from the molar mass of the structure shown. Counter-ions that a name gives are not always drawn.
What was measured:
pKa (66% DMF) = format: physicochemical
6C3HED lymphosarcoma = experiment: activity against transplanted tumor 6C3HED lymphosarcoma in mice; format: in vivo; settings: intravenous, day one
Procedure: Certain of the above compounds have also shown activity against a transplanted tumor, 6C3HED lymphosarcoma, in mice. Information as to this activity is summarized in Table 2 in which column 1 gives the name of the compound, column 2, the dose level in mg./kg. and column 3 the percent tumor inhabitation. All compounds were administered on day one by the intravenous route.

[1] = test system: human leukemic cells (CCRF-CEM cell line); experiment: C.C.R.F.-C.E.M. Cytotoxicity Assay, growth inhibition of human leukemic cells; format: cell-based; settings: read-out: IC50 (concentration giving 50% growth inhibition)
Description: In the Table, column 1 gives the name of the compound and column 2, the IC50 (concentration giving 50% growth inhibition) in mcg/ml.

growing tumor cells = experiment: metaphase arrest, block of growing tumor cells in mitosis; format: cell-based; settings: standard procedures; read-out: concentration at which compound blocked growing tumor cells in mitosis (metaphase arrest)
Procedure: The compounds of this invention in which Z is OH, NH2, NHNH2, or O--C1-3 alkyl have utility as anti-tumor compounds acti transplanted tumors in mice, as mitotic inhibitors and as cytotoxic agents. As evidence of such utility, the ability of N^2 -succinoyl 4-desacetyl VLB 3-carboxhydrazide methyl ester sulfate to cause metaphase arrest was measured by standard procedures.

[2] = test system: vincristine-resistant leukemias; settings: marketed oncolytic agent; cited from earlier work

Work on `CC[C@]1(O)C[C@@H]2CN(CCc3c([nH]c4ccccc34)[C@@](C(=O)OC)(c3cc4c(cc3OC)N(C)[C@H]3[C@@](O)(C(=O)NNC(=O)CCC(=O)O)[C@H](O)[C@]5(CC)C=CCN6CC[C@]43[C@@H]65)C2)C1` [Example 1, N^2 -Succinoyl-4-desacetyl VLB 3-carboxhydrazide] yielded a pKa (pKa (66% DMF)) of 5.1.

Work on `CC[C@]1(O)C[C@@H]2CN(CCc3c([nH]c4ccccc34)[C@@](C(=O)OC)(c3cc4c(cc3OC)N(C)[C@H]3[C@@](O)(C(=O)NNC(=O)CCCC(=O)O)[C@H](O)[C@]5(CC)C=CCN6CC[C@]43[C@@H]65)C2)C1` [Example 8, N^2 -Glutaroyl 4-desacetyl VLB 3-carboxhydrazide] yielded a pKa (pKa (66% DMF)) of 4.8.

In the case of `CC[C@]1(O)C[C@@H]2CN(CCc3c([nH]c4ccccc34)[C@@](C(=O)OC)(c3cc4c(cc3OC)N(C)[C@H]3[C@@](O)(C(=O)NNC(=O)CCC(=O)O)[C@H](O)[C@]5(CC)C=CCN6CC[C@]43[C@@H]65)C2)C1` [N^2 --Succinoyl 4-desacetyl VLB 3-carboxhydrazide sulfate], the “% Tumor Inhibition” value (6C3HED lymphosarcoma; 0.625 mg/kg) is reported as 13%, the “% Tumor Inhibition” value (6C3HED lymphosarcoma; 1.25 mg/kg) is reported as 5% and the “% Tumor Inhibition” value (6C3HED lymphosarcoma; 2.5 mg/kg) is reported as 5%. For the same molecule, the “% Tumor Inhibition” value (6C3HED lymphosarcoma; 5 mg/kg) was 33%, the “% Tumor Inhibition” value (6C3HED lymphosarcoma; 10 mg/kg) was 77% and the “% Tumor Inhibition” value (6C3HED lymphosarcoma; 20 mg/kg) was 100%. The “% Tumor Inhibition” value (6C3HED lymphosarcoma; 40 mg/kg) was 100%.

With `CC[C@]1(O)C[C@@H]2CN(CCc3c([nH]c4ccccc34)[C@@](C(=O)OC)(c3cc4c(cc3OC)N(C)[C@H]3[C@@](O)(C(=O)NNC(=O)CCCCC(=O)OC)[C@H](O)[C@]5(CC)C=CCN6CC[C@]43[C@@H]65)C2)C1` [N^2-adipoyl-4-desacetyl VLB 3-carboxyhydrazide methylester] the IC50 [1] was 0.4 µg/mL (≈ 0.439 µM).

`CC[C@]1(O)C[C@@H]2CN(CCc3c([nH]c4ccccc34)[C@@](C(=O)OC)(c3cc4c(cc3OC)N(C)[C@H]3[C@@](O)(C(=O)NNC(=O)CCCC(=O)O)[C@H](O)[C@]5(CC)C=CCN6CC[C@]43[C@@H]65)C2)C1` [N^2-glutaroyl 4-desacetyl VLB 3-carboxhydrazide sulfate] gave an IC50 [1] of 0.1 µg/mL.

For `CC[C@]1(O)C[C@@H]2CN(CCc3c([nH]c4ccccc34)[C@@](C(=O)OC)(c3cc4c(cc3OC)N(C)[C@H]3[C@@](O)(C(=O)NNC(=O)CCC(=O)OC)[C@H](O)[C@]5(CC)C=CCN6CC[C@]43[C@@H]65)C2)C1` [N^2-succinoyl 4-desacetyl VLB 3-carboxhydrazide methyl ester], the minimal effective concentration (growing tumor cells) was 0.2 µg/mL, the “% Tumor Inhibition” value (6C3HED lymphosarcoma; 1 mg/kg) was 100% and the “% Tumor Inhibition (toxic dose)” value (6C3HED lymphosarcoma; 2 mg/kg) was “Toxic”. For the same molecule, the “% Tumor Inhibition (toxic dose)” value (6C3HED lymphosarcoma; 4 mg/kg) was “Toxic” and the “% Tumor Inhibition” value (6C3HED lymphosarcoma; .5 mg/kg) was 100%.

For `CC[C@]1(O)C[C@@H]2CN(CCc3c([nH]c4ccccc34)[C@@](C(=O)OC)(c3cc4c(cc3OC)N(C)[C@H]3[C@@](O)(C(N)=O)[C@H](O)[C@]5(CC)C=CCN6CC[C@]43[C@@H]65)C2)C1` [vindesine, 4-desacetyl VLB 3-carboxamide], the “effectiveness in treating leukemias and neoplasms” value [2] is given as “effective in treating some vincristine-resistant leukemias in addition to many common neoplasms including germ-cell tumors”.

Source: patent US4675400A, “Bifunctional derivatives of 4-desacetyl indole-dihydroindole alkaloids” (Eli Lilly and Company, priority 1985, dated 1987)
